Source: US20230338310A1, “ANTI-VIRAL THERAPY” (priority 2020, published 2023)
In brackets after ≈: the same amount, converted by molar mass. Entries after “also recorded” stand apart in the source; their conditions may differ.

Tests used:
[1] = tested on: IFNβ; assay: IFNβ response of A549 airway epithelial cells infected with human coronavirus 229E (IFN Beta Quantikine kit); format: cell-based; conditions: 10^3 dilution of stock HCoV 229E, single dose of 10 mg/L, 20 h at 37° C., none detected with virus alone
[2] = tested on: hCoV 229E; assay: qPCR of hCoV 229E M protein gene copies in supernatant of infected A549 lung epithelial cells; format: cell-based, human coronavirus 229E in human A549 cells; conditions: 1 or 2 mg/L daily until 5th day, virus dilutions 10^-3 to 10^-5
Method: The effect of treatment of coronavirus-infected pulmonary cells with cysteamine was studied using A549 (sample obtained from deposit, deposited under ATCC CCL-185) being a human lung epithelial cell line. Prior to viral challenge A549 cells were grown at 37° C. in 5% CO2 atmosphere in growth media F-12 with Kaighn's modification+10% FBS +pen-strep [F-12K]) to 70-80% confluency in F12-K in tissue-culture-treated 96-well plates. Immediately prior to viral challenge, cells were washed in Hanks balanced salt solution and media was replaced with 100 μl challenge medium per well (F-12K) which contained 1% serum. […] Quantitative (real-time) polymerase chain reaction (qPCR) was carried out using PrecisionPLUS qPCR Master Mix (PrimerDesign) and forward and reverse oligonucleotides (229E Sense & 229E Antisense) specific to the hCoV 229E M protein gene. Amplification was carried out using a MiniOpticon Real-Time PCR system (Bio-Rad) and data was analysed using Opticon Monitor software (Bio-Rad). Analysed samples had been exposed to 10^−3 (1.12×10^12 pfu/ml), 10^−4 (1.12×10^11 pfu/ml) and 10^−5 (1.12×10^10 pfu/ml) of hCoV 229E and conducted from quadruplicate technical replicates. The number of copies of the 229E M protein gene were determined from a standard curve containing known number of copies of the 229E M protein gene.

[3] = tested on: SARS-CoV-2 (SARS-CoV-2-CVR-Gla-1); assay: SARS-CoV-2 cytopathology (CPE) assay in Vero E6 MESO cells; format: cell-based
[4] = 14 days of cysteamine therapy adjunct to standard of care therapy; cited from earlier work
[5] = molecular target: T1, glycine decarboxylase (Homo sapiens, UniProt P23378); assay: Glycine utilisation by MRC-5 fibroblasts (fluorometric glycine assay of supernatants); format: cell-based; conditions: 10 mg/L cysteamine, 4 h, glycine 300 μM, insulin 10 mg/L
T1 construct: endogenous in cells; host or cells: MRC-5 airway fibroblast cells
T1 sequence (P23378 36-1020): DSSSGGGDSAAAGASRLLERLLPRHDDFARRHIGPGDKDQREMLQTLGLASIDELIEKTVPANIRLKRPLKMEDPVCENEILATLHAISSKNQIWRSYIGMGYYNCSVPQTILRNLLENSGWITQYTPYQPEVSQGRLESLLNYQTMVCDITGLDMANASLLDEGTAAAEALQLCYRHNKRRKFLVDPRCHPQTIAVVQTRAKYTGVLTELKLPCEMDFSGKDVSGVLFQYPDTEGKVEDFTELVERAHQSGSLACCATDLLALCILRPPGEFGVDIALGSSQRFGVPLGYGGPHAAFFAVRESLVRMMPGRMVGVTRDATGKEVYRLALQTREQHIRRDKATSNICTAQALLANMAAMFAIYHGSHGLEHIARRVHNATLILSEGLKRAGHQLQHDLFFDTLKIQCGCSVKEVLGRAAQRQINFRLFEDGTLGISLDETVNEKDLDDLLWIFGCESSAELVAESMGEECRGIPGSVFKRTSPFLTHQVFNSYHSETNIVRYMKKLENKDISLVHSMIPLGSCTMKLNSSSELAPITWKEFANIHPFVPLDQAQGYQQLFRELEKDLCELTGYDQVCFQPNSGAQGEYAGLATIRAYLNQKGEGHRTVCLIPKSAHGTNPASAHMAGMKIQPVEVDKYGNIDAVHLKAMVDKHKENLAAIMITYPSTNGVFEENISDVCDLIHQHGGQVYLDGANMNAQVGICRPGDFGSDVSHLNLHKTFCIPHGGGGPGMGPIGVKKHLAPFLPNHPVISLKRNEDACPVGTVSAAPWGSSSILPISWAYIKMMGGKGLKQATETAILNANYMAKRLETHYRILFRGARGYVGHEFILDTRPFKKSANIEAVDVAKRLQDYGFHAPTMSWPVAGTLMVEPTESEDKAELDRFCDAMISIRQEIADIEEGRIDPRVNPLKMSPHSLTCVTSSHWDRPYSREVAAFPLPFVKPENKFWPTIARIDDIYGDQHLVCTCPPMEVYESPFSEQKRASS
Method: MRC-5 airway fibroblast cells were grown to 90% confluence in 2×12-well plates in EMEM+10% FBS. Cell culture media was replaced with:
Plate 1 • 1. 3×1 ml media alone (EMEM+10% FBS) • 2. 3×1 ml media+insulin (10 mg/L) • 3. 3×1 ml media+added glycine (300 μM) • 4. 3×1 ml media+glycine+insulin
As above, but with the addition of cysteamine to a final concentration of 10 mg/L Cells were then incubated at 37° C. and 5% C02 for 4 h. After incubation cell supernatants were harvested and transferred to labelled cryotubes and stored at −80° C. prior to assessment of glycine content. Insulin strongly stimulates glycine utilisation via glycine decarboxylase.
The supernatants were thawed prior to determining the glycine concentration using the fluorometric glycine assay kit from Abcam (Ab211100).
Manufacturer's instructions were followed and fluorometric assessment of glycine concentration in supernatants and standards was performed on the Biotek Synergy plate reader using 96-well black-walled plates at 535/587 nm (ex/em).

[6] = tested on: hCoV 229E; assay: Immunoperoxidase assay (TCID50/pfu) and microscopic examination of hCoV 229E-infected MRC-5 lung fibroblast cells; format: cell-based, human coronavirus 229E (ATCC VR/740) in human MRC-5 cells; conditions: MRC-5 cells
[7] = tested on: hCoV 229E; assay: Immunoperoxidase assay (TCID50/pfu) and microscopic examination of hCoV 229E-infected A549 lung epithelial cells; format: cell-based, human coronavirus 229E (ATCC VR/740) in human A549 cells
[8] = tested on: IL-6; assay: IL-6 response of A549 airway epithelial cells infected with human coronavirus 229E (IL-6 Duoset immunoassay); format: cell-based; conditions: 10^3 dilution of stock HCoV 229E, single doses of 2 or 10 mg/L, 20 h at 37° C., one-way ANOVA and Tukey
[9] = 2 mg/L daily for 5 days, all virus concentrations of the study

SMILES: NCCS [cysteamine, 2-Aminoethanethiol]
- IFNβ response [1]: IFNβ is detected
- viral load as number of copies of the 229E M protein gene [2]: reduces viral load
- IC50 ([3]; Severe acute respiratory syndrome coronavirus 2, Vero C1008, 72 h, read-out: IC50 (CPE induced by SARS-CoV-2)): 21.4 µg/mL (≈ 277 µM)
- CPE (Cytopathology) induced by SARS-CoV-2 ([3]; Vero E6 MESO cells): reduced the CPE
- protection of the cell monolayer from SARS-CoV-2 CPE ([3]; Vero E6 MESO cells, 128 mg/L, 72 hours post-infection and later): almost complete protection
- protection of the cell monolayer from SARS-CoV-2 CPE ([3]; Vero E6 MESO cells, therapeutically-achievable doses, 72 hours post-infection): modest
- CRP levels versus SOCT alone [4]: significantly reduced
- WBC levels versus SOCT alone [4]: significantly reduced
- insulin-driven utilisation of exogenous glycine [5]: blocked
- viral load (pfu/ml) relative to control without cysteamine ([6]; 2 mg/L): can reduce viral load
- protection against infection with hCoV 229E [6, 9]: confer protection against infection
- cell monolayer integrity by microscopic examination ([6]; day 4, 2 mg/L cysteamine, untreated cells destroyed at 10^-4 to 10^-7 viral dilution): not seen at all in any of the cysteamine treated cells; also recorded: visible intact monolayer
- pfu/ml in wells infected with hCoV 229E ([7]; 1 mg/L cysteamine once a day for 5 days (untreated control 2.21 × 10^14/ml)): 3.94 × 10^15/ml pfu/ml
- viral load (pfu/ml) relative to control without cysteamine ([7]; 2 mg/L): can reduce viral load
- pfu/ml in wells infected with hCoV 229E ([7]; 2 mg/L cysteamine once a day for 5 days (untreated control 2.21 × 10^14/ml)): 7 × 10^9/ml pfu/ml
- protection against infection with hCoV 229E [7, 9]: confer protection against infection
- IL-6 secretion compared with viral infection alone [8]: significantly reduced IL-6 secretion
